For two molecules, Km results are on record in publication PMC12646544, “Bioremediation of acetamiprid and sulfoxaflor co-contamination by Ensifer sp. DA6 and characterization of a novel nitrile hydratase involved” (Frontiers in Microbiology, 2025).

As usually defined, the Km is the concentration of substrate that gives half-maximal velocity.

For the assay, the system named is T1, Ensifer sp. DA6 NHase.
T1 construct: gene nthA; NHase gene cluster (alpha, beta, accessory) in pET28a, E. coli Rosetta (DE3), N-terminal 6xHis-tag, Ni-NTA purified; cobalt type; accessory protein not detected on SDS-PAGE; forward primer encodes MSEHHHG; alpha motif VCTLCSC; with Nitrile hydratase accessory protein
Nature of the assay: HPLC, Michaelis-Menten non-linear regression. It is filed as biochemical. The settings on record: 50 mmol/L PBS pH 7.0, 45 °C, cobalt enzyme, 25-1,000 mg/L substrate. The text has this:
HPLC, Michaelis-Menten non-linear regression on Ensifer sp.

Take `C/C(=N\C#N)N(C)Cc1ccc(Cl)nc1` [ACE, N-[(6-chloro-3-pyridyl)methyl]-N′-cyano-N-methylacetamidine]: the Km (60 min) was 8.16 mM.
As for `CC(c1ccc(C(F)(F)F)nc1)S(C)(=O)=NC#N` (centres unmarked) [SUL, [N-(methyloxido{1-[6-(trifluoromethyl)-3-pyridinyl]ethyl}-λ^4-sulfanylidene)cyanamide]], where the note is “30 min, stereoisomer mixture”, the Michaelis-Menten constant (Km) was found to be 7.93 mM.
